Test results taken from PubChem BioAssay AID1963849 (Molecular Pharmacology Branch, DTP, NCI, 2024).
Values belong to the molecule of their own block, whether it stands above or below them.

Tested on: 299254-011-R-J1-PDC complex spheroid viability
Experiment: Anticancer human tumor 299254-011-R-J1-PDC patient-derived melanoma cell line growth inhibition [POLQ]
Settings: for viability, T/C: stronger effect = lower value
Method: Multicellular complex tumor spheroid response to Polymerase (POL) inhibitors (novobiocin, ART-558, RP6685) in combination with a variety of drugs and investigational agents in selected tumor cell lines
The POL inhibitors (novobiocin, ART-558, and RP6685) were evaluated both individually and in combination with standard of care and investigational anticancer small molecules within a complex spheroid model of solid tumors. . Complex spheroids include a stromal component modeled by human endothelial cells (HUVEC) and fibroblasts modeled by human mesenchymal stem cells (MSCs). The concentration ranges selected for each drug and investigational agent were based upon clinically achievable concentrations if the clinical Cmax of the agent was known.
Compounds. The drugs and investigational agents: novobiocin (NSC847541), ART-558 (NSC835418), RP-6685 (NSC848927), peposertib (NSC802822), ceralasertib (NSC780249), elimusertib (NSC800525), camonsertib (NSC841442), AZD-1390 (NSC803789), olaparib (NSC753686), talazoparib (NSC767125), rucaparib (NSC756644), sotorasib (NSC818433), MRTX-1133 (NSC836407), SN-38 (NSC673596), topotecan (NSC609699), epotoside (NSC141540), doxorubicin (NSC123127), gemcitabine (NSC613327), 5-fluorouracil (NSC19893), paclitaxel (NSC125973), vemurafenib (NSC761431), MSA-2 (NSC828583), SN-011 (NSC837082), adavosertib (NSC754352), prexasertib (NSC758257), carboplatin (NSC241240) and oxaliplatin (NSC266046), were obtained from the National Cancer Institute (NCI) Developmental Therapeutics Program Chemical Repository (21). The FDA-approved anticancer drug set is available from the Developmental Therapeutics Program at https://dtp.cancer.gov/organization/dscb/obtaining/. […] The stock solutions were prepared in dimethyl sulfoxide (DMSO, Sigma-Aldrich, St. Louis, MO, cat. D2650), except for the platinum compounds which were prepared in saline (Quality Biological, Gaithersburg, MD, cat. 114-055-101), at 800-fold the tested concentration and stored at -70 degrees C prior to their use. All drugs and investigational agents were tested over a range starting from a high concentration at or near the clinical Cmax and decreasing in half-log increments. If the clinical Cmax for an agent had not been determined, the highest concentration tested was 10 microM, except for SN-38, which was tested at a high concentration of 1 microM.
Cell Culture. All cells were maintained in an incubator at 37 degrees C and 5% CO2 with 95% humidity. The PDC lines were cultured according to standard operating procedures established by the NCI PDMR (https://pdmr.cancer.gov). Table 3 of the manuscript, lists the cell lines along with the number of the three cell types plated to form the mct-spheroids and media for tumor cell growth. After thawing, all PDC lines, except 997537-175-T-J1-PDC and 415267-285-R-J2-PDC, were cultured in Matrigel-coated flasks prepared with a working solution of 1X Ham's F-12 nutrient mix, without supplementation (Thermo Fisher Scientific, cat. 11765054), 100 U/mL penicillin-streptomycin (Thermo Fisher Scientific, cat. 15140122), and 2.5% Matrigel (Corning Inc., Corning, NY, cat. 354248) for the first three passages. The two PDC lines 997537-175-T-J1-PDC and 415267-285-R-J2-PDC were cultured on uncoated flasks. The 857933-349-R-J2-PDC line was cultured in 6C/Colon 1B media containing advanced DMEM/F-12 (Thermo Fisher Scientific, cat. 12634028), 10 mM HEPES (Thermo Fisher Scientific, cat. 15630080), 1X GlutaMAX supplement (Thermo Fisher Scientific, cat. 35050061), 0.1 mg/mL primocin (InvivoGen, San Diego, CA, cat. ant-pm-2), 10% defined fetal bovine serum, heat inactivated (HyClone Laboratories Inc., Logan, UT, cat. SH30070.03HI), 50% L-WRN conditioned media (ATCC, cat. CRL-3276), 1.25 mM N-Acetyl-L-cysteine (Sigma-Aldrich, cat. A9165), 10 mM nicotinamide (Sigma-Aldrich, cat. N0636), 1X B-27 supplement (Thermo Fisher Scientific, cat. 17504044), 1X N-2 supplement (Thermo Fisher Scientific, cat. […]

[1] = curve of first compound, second compound 0.0316 µM
[2] = curve of first compound, second compound 0.1 µM
[3] = curve of first compound, second compound 0.316 µM
[4] = curve of first compound, second compound 1 µM
[5] = curve of first compound, second compound 3.16 µM
[6] = curve of first compound, second compound 10 µM
[7] = compound alone, run of 11/27/2023
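Note: spheroids exposed to drugs for one week before measurement.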
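Throughout, for viability, T/C: percent viability relative to DMSO vehicle control taken as 100%.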

Structure (SMILES): CCc1cc2c(N3CCc4c(cc(Cn5ccnc5)cc4-c4cn(C)nc4C(F)(F)F)C3=O)ccnc2c(OC)n1 + Nc1ccc(C#CCN(C(=O)Cc2ncc(C(F)(F)F)cc2C(F)(F)F)c2ccc(F)cc2)nn1
IC50 [1]: > 10000 nM
IC50 [2]: > 10000 nM
IC50 [3]: > 10000 nM
IC50 [4]: > 10000 nM
IC50 [5]: > 10000 nM
IC50 [6]: > 10000 nM
viability, T/C (second compound 0.0316 µM, first compound 0.0316 µM): 118%
viability, T/C (second compound 0.0316 µM, first compound 0.1 µM): 99.3%
viability, T/C (second compound 0.0316 µM, first compound 0.316 µM): 93.6%
viability, T/C (second compound 0.0316 µM, first compound 1 µM): 115%
viability, T/C (second compound 0.0316 µM, first compound 3.16 µM): 109%
viability, T/C (second compound 0.0316 µM, first compound 10 µM): 74.3%
viability, T/C (second compound 0.1 µM, first compound 0.0316 µM): 101%
viability, T/C (second compound 0.1 µM, first compound 0.1 µM): 107%
viability, T/C (second compound 0.1 µM, first compound 0.316 µM): 91.4%
viability, T/C (second compound 0.1 µM, first compound 1 µM): 99.2%
viability, T/C (second compound 0.1 µM, first compound 3.16 µM): 89.2%
viability, T/C (second compound 0.1 µM, first compound 10 µM): 73.6%
viability, T/C (second compound 0.316 µM, first compound 0.0316 µM): 126%
viability, T/C (second compound 0.316 µM, first compound 0.1 µM): 100%
viability, T/C (second compound 0.316 µM, first compound 0.316 µM): 107%
viability, T/C (second compound 0.316 µM, first compound 1 µM): 98.9%
viability, T/C (second compound 0.316 µM, first compound 3.16 µM): 97.2%
viability, T/C (second compound 0.316 µM, first compound 10 µM): 79.5%
viability, T/C (second compound 1 µM, first compound 0.0316 µM): 102%
viability, T/C (second compound 1 µM, first compound 0.1 µM): 114%
viability, T/C (second compound 1 µM, first compound 0.316 µM): 103%
viability, T/C (second compound 1 µM, first compound 1 µM): 101%
viability, T/C (second compound 1 µM, first compound 3.16 µM): 89%
viability, T/C (second compound 1 µM, first compound 10 µM): 73.5%
viability, T/C (second compound 3.16 µM, first compound 0.0316 µM): 96.9%
viability, T/C (second compound 3.16 µM, first compound 0.1 µM): 97.2%
viability, T/C (second compound 3.16 µM, first compound 0.316 µM): 89.5%
viability, T/C (second compound 3.16 µM, first compound 1 µM): 100%
viability, T/C (second compound 3.16 µM, first compound 3.16 µM): 84.5%
viability, T/C (second compound 3.16 µM, first compound 10 µM): 76.5%
viability, T/C (second compound 10 µM, first compound 0.0316 µM): 90.4%
viability, T/C (second compound 10 µM, first compound 0.1 µM): 103%
viability, T/C (second compound 10 µM, first compound 0.316 µM): 87%
viability, T/C (second compound 10 µM, first compound 1 µM): 80.6%
viability, T/C (second compound 10 µM, first compound 3.16 µM): 84.8%
viability, T/C (second compound 10 µM, first compound 10 µM): 62.2%

IC50 [7]: > 10000 nM
IC50 (compound alone, run of 12/05/2023): > 10000 nM
Structure (SMILES): Cc1cccc(N(C)C(=O)C2C(O)CCN2c2nc(C)cc(C(F)(F)F)c2C#N)c1 (stereo not drawn)
viability, T/C (compound 0.0316 µM): 102% [middle of 13 runs]
viability, T/C (compound 0.1 µM): 103% [middle of 13 runs]
viability, T/C (compound 0.316 µM): 102% [middle of 13 runs]
viability, T/C (compound 1 µM): 103% [middle of 13 runs]
viability, T/C (compound 3.16 µM): 97.3% [middle of 13 runs]

Structure (SMILES): CC(=O)O[C@H]1C(=O)[C@@]2(C)[C@H]([C@H](OC(=O)c3ccccc3)[C@]3(O)C[C@H](OC(=O)[C@H](O)[C@@H](NC(=O)c4ccccc4)c4ccccc4)C(C)=C1C3(C)C)[C@]1(OC(C)=O)CO[C@@H]1C[C@@H]2O + Nc1ccc(C#CCN(C(=O)Cc2ncc(C(F)(F)F)cc2C(F)(F)F)c2ccc(F)cc2)nn1
IC50 [1]: 153 nM
IC50 [2]: 85.6 nM
IC50 [3]: 109 nM
IC50 [4]: 50.2 nM
IC50 [5]: 24.9 nM
IC50 [6]: < 9.49 nM
viability, T/C (second compound 0.0316 µM, first compound 0.00949 µM): 90.2%
viability, T/C (second compound 0.0316 µM, first compound 0.03 µM): 76.6%
viability, T/C (second compound 0.0316 µM, first compound 0.0949 µM): 59.5%
viability, T/C (second compound 0.0316 µM, first compound 0.3 µM): 37.8%
viability, T/C (second compound 0.0316 µM, first compound 0.949 µM): 28.6%
viability, T/C (second compound 0.0316 µM, first compound 3 µM): 24.8%
viability, T/C (second compound 0.1 µM, first compound 0.00949 µM): 103%
viability, T/C (second compound 0.1 µM, first compound 0.03 µM): 78.6%
viability, T/C (second compound 0.1 µM, first compound 0.0949 µM): 43.7%
viability, T/C (second compound 0.1 µM, first compound 0.3 µM): 39.5%
viability, T/C (second compound 0.1 µM, first compound 0.949 µM): 28.4%
viability, T/C (second compound 0.1 µM, first compound 3 µM): 26.9%
viability, T/C (second compound 0.316 µM, first compound 0.00949 µM): 84.2%
viability, T/C (second compound 0.316 µM, first compound 0.03 µM): 85.3%
viability, T/C (second compound 0.316 µM, first compound 0.0949 µM): 52%
viability, T/C (second compound 0.316 µM, first compound 0.3 µM): 32.5%
viability, T/C (second compound 0.316 µM, first compound 0.949 µM): 27.8%
viability, T/C (second compound 0.316 µM, first compound 3 µM): 24.5%
viability, T/C (second compound 1 µM, first compound 0.00949 µM): 80.8%
viability, T/C (second compound 1 µM, first compound 0.03 µM): 58.2%
viability, T/C (second compound 1 µM, first compound 0.0949 µM): 39.2%
viability, T/C (second compound 1 µM, first compound 0.3 µM): 32.3%
viability, T/C (second compound 1 µM, first compound 0.949 µM): 21.7%
viability, T/C (second compound 1 µM, first compound 3 µM): 25.4%
viability, T/C (second compound 3.16 µM, first compound 0.00949 µM): 74.7%
viability, T/C (second compound 3.16 µM, first compound 0.03 µM): 43.5%
viability, T/C (second compound 3.16 µM, first compound 0.0949 µM): 35.5%
viability, T/C (second compound 3.16 µM, first compound 0.3 µM): 25.9%
viability, T/C (second compound 3.16 µM, first compound 0.949 µM): 22.7%
viability, T/C (second compound 3.16 µM, first compound 3 µM): 25.4%
viability, T/C (second compound 10 µM, first compound 0.00949 µM): 47.5%
viability, T/C (second compound 10 µM, first compound 0.03 µM): 36%
viability, T/C (second compound 10 µM, first compound 0.0949 µM): 26.9%
viability, T/C (second compound 10 µM, first compound 0.3 µM): 20.9%
viability, T/C (second compound 10 µM, first compound 0.949 µM): 24.8%
viability, T/C (second compound 10 µM, first compound 3 µM): 23.2%

Structure (SMILES): COC1C(OC(N)=O)C(O)C(Oc2ccc3c(O)c(NC(=O)c4ccc(O)c(CC=C(C)C)c4)c(=O)oc3c2C)OC1(C)C (stereo not drawn)
viability, T/C (compound 3.16 µM): 102% [middle of 13 runs]
IC50 [7]: > 10000 nM
